In one series the test system is Human 293T cells. In words: Reduction of Neu5Gc contamination in 293T human kidney cells by Neu5Ac chase. The settings on record: 5 mM Neu5Ac chase after 5 mM Neu5Gc for 3 days; HPLC; FIG. 3A-B. The class given is cell-based. On the procedure: Reduction of Neu5Gc Contamination in Glycosylated Polypeptides in 293T Human Kidney Cells. 293T human kidney cells were grown in DME supplemented with 10% FCS. Cells were lifted from culture plate using 20 mM EDTA in PBS and allowed to grow to 50% confluence. Buffered 100 mM Neu5Gc was added to the culture in duplicate at a final 5 mM concentration, and the cells were grown in this supplemented media for 3 days. At the end of this Neu5Gc pulse, the cells were once again lifted using 20 mM EDTA in PBS, pelleted, washed once with PBS to remove any excess Neu5Gc and then suspended in 30 ml of growth medium. Five ml of this cell suspension was added to each of […]. The last aliquot of cell suspension, time “0”, was immediately harvested by pelleting the cells, washing once with PBS, followed by suspending the cells in 1 ml of PBS and transferring to a 1.5 ml microcentrifuge tube. The cells were re-pelleted and frozen until all time points were collected. […]
Free Neu5Ac in Human 293T Cell Culture Medium Reduces Neu5Gc Contamination. […] Cells were harvested as described above, and the Neu5Gc and Neu5Ac content of both the ethanol soluble (FIG. 3A) and ethanol precipitable proteins (FIG. 3B) was analyzed by HPLC. […]

Another series concerns CHO cells. The series is described as follows: Reduction of Neu5Gc contamination in CHO cells by feeding Neu5Ac. The class given is cell-based, Chinese Hamster. The settings on record: 5 mM Neu5Ac in medium; DMB-HPLC and Western blot; FIG. 3C-E. The procedure: Reduction of Neu5Gc Contamination in Glycosylated polypeptides in CHO Cells. A similar approach was taken to CHO cells stably expressing a Siglec-Fc protein in the medium, except that the Neu5Gc pulse was omitted, and the secreted glycoproteins were captured on Protein-A Sepharose beads. The cells were also processed similarly, except that total cell membranes were pelleted by centrifugation. The Sias content of the secreted proteins and cell membranes was determined by acid hydrolysis, DMB derivatization and HPLC. The cell membranes were also studied for NueSGc content by Western-blotting with the chicken anti-Neu5Gc IgY, as described above.
Free Neu5Ac in Non-Human CHO Cell Culture Medium Reduces Neu5Gc Contamination. However, many recombinant glycosylated polypeptides are currently produced in non-human cells, e.g., Chinese Hamster Ovary (CHO) cell lines. Glycosylated polypeptide produced in CHO cells carry small amounts of Neu5Gc^19,5. […] The individually collected media was centrifuged to remove cell debris and adjusted to 5 mM Tris-HCl pH 8. The fusion protein was purified using Protein-A Sepharose. Sialic acid content was determined by DMB-HPLC analysis (FIG. 3C). The area under each peak was obtained and the percent of Neu5Gc in each sample was determined relative to Neu5Ac. Total cell membranes from the same CHO cells were prepared and used for DMB-HPLC analysis (FIG. 3D). […]

In series [1] the test system is affinity-purified chicken anti-Neu5Gc IgY. In words: ELISA detection of Neu5Gc on Cetuximab and Panitumumab. As to conditions: 1 μg antibody per well; FIG. 1A. The class given is binding. The text has this:
Sialidase Treatment of Cet and Pan. […] Samples were used for ELISA or Western Blots.
ELISA samples were studied at least in triplicate. […] Samples were studied in triplicate.
ELISA We first did ELISA assays using an affinity-purified polyclonal chicken anti-Neu5Gc antibody preparation that is highly mono-specific for Neu5Gc^5, alongside a non-reactive control IgY.

A short description of series [2]: Sialic acid quantity (DMB-HPLC). The class given is physicochemical. The procedure:
DMB-HPLC. Samples were subjected to base treatment with 0.1 M NaOH (final) at 37° C. for 30 min to remove O-acetyl esters, and the sialic acids were released by acid hydrolysis with 2 M acetic acid (final), at 80° C. for 3 hours. Samples were passed through Microcon-10 columns (20 min, 10000×g; Millipore), derivatized with 1,2-diamino-4,5-methyl dioxybenzene (DMB), and analyzed by HPLC as described^9 in Hara et al., 1986, J. Chromatography 377:111-119. Measured values of non acid-treated controls (free sialic acids) were subtracted.
(§1) Sialic Acid Quantity. The levels of Sialic acids on the therapeutic antibodies (TAbs) Cet and Pan were determined. […] Cet and Pan (1 μg each) were separated by SDS-PAGE and Coomassie stained or blotted (see FIG. 1B). […] The absorbance was measured at 405 nm.

For series [3], the system named is anti-Neu5Gc antibodies in human serum. The series is described as follows: CIC-C1q binding assay, immune complex formation in whole human serum. The settings on record: 40 μg antibody in 100 μl serum, FIG. 1F. On the procedure: CIC-C1q Binding Assay. […] 1:50 dilutions of the mix were applied to human C1 q coated ELISA wells, and incubated for 1 h at 25° C. […] The absorbance was measured at 405 nm. Samples were studied in triplicate.
as §1

In series [4] the test system is anti-Neu5Gc antibodies from whole human sera. In words: Direct binding of anti-Neu5Gc antibodies from whole human sera to Fab fragments (ELISA). The settings on record: serum S34; Fab fragments 1 μg/well; FIG. 2C.
Description: Direct binding of anti-Neu5Gc antibodies from whole human sera to the glycosylated polypeptides, Cet and Pan, was evaluated. […] Fab fragments (1 μg/well) were used as target molecules in ELISA. Sialic acid specific binding was determined with sodium metaperiodate treatment. Wells were then blocked and incubated with human sera (S30 and S34 with low and high anti-Neu5Gc IgG titers, respectively, from Ref. 7).

For `CC(=O)N[C@H]1[C@H]([C@H](O)[C@H](O)CO)OC(O)(C(=O)O)C[C@@H]1O` (some centres unmarked) [Neu5Ac, N-acetylneuraminic acid], the “Effect on Neu5Gc content of cells preloaded with Neu5Gc” value with Human 293T cells is on record as “more rapid disappearance of ethanol-precipitable (glycosidically-bound) Neu5Gc”. In addition, in the series on CHO cells, the “Effect on Neu5Gc of membrane glycoproteins and a secreted recombinant protein” value is “reduces Neu5Gc in CHO cells”.

On to “Panitumumab: fully human antibody against the EGF receptor produced in Chinese Hamster Ovary cells”, for which, in series [1], the “Bound Neu5Gc detected by chicken anti-Neu5Gc IgY (ELISA)” value is “not on Panitumumab”. In addition, in series [2], the “Share of Neu5Gc in the Sias” value is reported as below 0.1% and the “Sias carried by the antibody” value stood at 0.22 mol/mol. The “Immune complex formation, low titer human serum” value in series [3] (serum S30) is listed as “no detectable immune complex formation”. In series [3] (serum S34), the “Immune complex formation, human serum with high levels of anti-Neu5Gc antibodies” value was “no detectable immune complex formation”. The “Mild periodate sensitive binding of serum IgG to Fab fragments, high anti-Neu5Gc titer serum” value in series [4] is recorded as “not to those of Panitumumab”.

For the origin of these results see US20120045816A1, “Novel Glycosylated Polypeptides” (Sialix, Inc., priority 2008, published 2012).
